In patent publication US20220339150A1, “ENDOCANNABINOID SYSTEM-TARGETING PRODRUGS AND THERAPEUTIC USES THEREOF” (priority 2021, published 2022):
Entries after “also recorded” stand apart in the source; their conditions may differ. Where two headings read alike, the source gives them in different places.

Tests used:
[1] = Metabolic stability in human liver microsomes; type: in vitro ADME; conditions: for microsomal CLint / Half-life in human liver microsomes (single determinations): Table 5
Procedure: The prodrugs were incubated with the human liver microsomes at 37° C. as an indication of the susceptibility of prodrugs to undergo bioconversion in the liver. The reactions were initiated by adding 1.5 μL of the prodrug stock solution (10 mg/mL in DMSO) to a preheated solution consisting of 748.5 μL potassium phosphate buffer solution (20 mM, pH 7.4, ionic strength 0.5), 200 μL NADPH, and 50 μLhuman liver microsomes (mixed gender, 0.5 ml at 20 mg/mL). The solutions were stirred at a constant temperature of 37° C. At appropriate intervals, 50 μLof samples were mixed with 100 μL of ice-cold MeOH. After immediate mixing and centrifugation (5 min at 14.000 rpm), the resulting clear supernatant was analyzed for the remaining prodrug by HPLC.

[2] = test system: reconstructed human oral buccal epithelium cells (SkinEthic HOE, TR146 cells); test: In vitro buccal permeability (SkinEthic human oral epithelium); type: in vitro ADME; conditions: for Flux (buccal) / Flux compared with parent cannabinoid / Species making up the buccal flux / formation of parent cannabinoid: Table 4; for Flux (buccal): suspension ca. 2 mg/ml in 5% EtOH/phosphate buffer pH 6.8, 37° C., receiver 15% HP-β-cyclodextrin; for Flux compared with parent cannabinoid: buccal flux relative to parent; for Species making up the buccal flux / formation of parent cannabinoid / Species making up the buccal flux (parent vs intact prodrug): remark in flux cell; for Buccal permeation compared with parent cannabinoid (in words): 5% ethanol suspension; for Species making up the buccal flux (parent vs intact prodrug): Table 2
Procedure: The in vitro permeability studies were carried out in commercial reconstructed human oral buccal epithelium cells (SkinEthic™ human oral epithelium). The SkinEthic™ HOE model is composed of TR146 cells (derived from a squamous cell carcinoma of the buccal mucosa) cultivated on an inert polycarbonate filter at the air-liquid interface in a chemically defined medium. This model forms an epithelial tissue devoid of stratum corneum, resembling histologically to the mucosa of the oral cavity.
Upon receiving the cells, each insert (0.5 cm^2 or 0.33 cm^2) was placed in a plate containing 800 μL fresh medium at room temperature. The culture dishes were placed in the incubator at 37° C., 5% CO2, and saturated humidity overnight. Next day, the inserts were placed in a plate containing 800 μL 15% HP-β-cyclodextrin in H2O. The prodrugs were dissolved in 100% EtOH (5% (V/V) final conc.), and then sodium phosphate buffer solution (50 mM, pH 6.8, isotonic, 37° C.) was added (95% (V/V) final conc.). 400 μL of the prodrugs were applied as suspensions (ca. 2 mg/ml). The plates were stirred gently at 37° C. At appropriate intervals, the receptor compartment was sampled (100 μL) and replenished with fresh […] solution each time. The samples were mixed with 100 μL of MeOH, and analyzed for drug (both the parent cannabinoid and the prodrug) by HPLC-MS.
The buccal flux-values for the rate of delivery of drugs were determined from Fick's law of diffusion.

[3] = Stability in 80% human plasma (serum); type: in vitro ADME; conditions: 80% human serum (pH 7.4) at 37° C.; for half-life: human, serum
Procedure: The rates of the degradation of the prodrugs were determined in 80% human serum (pH 7.4) at 37° C. as an indication of the susceptibility of prodrugs to undergo bioconversion after reaching the circulation. The reactions were initiated by adding the first 10 μL of the prodrug stock solution (10 mg/mL in DMSO) to 200 μL preheated sodium phosphate buffer solution (50 mM, pH 7.4, ionic strength 0.5), and then adding 800 μL preheated human serum. The solutions were stirred at a constant temperature of 37° C. At appropriate intervals, 50 μL of samples were mixed with 150 μL of ice-cold MeOH. After immediate mixing and centrifugation (5 min at 14.000 rpm), the resulting clear supernatant was analyzed for the remaining prodrug by HPLC.

[4] = Stability in aqueous solutions (sodium phosphate buffer, 37° C.); type: physicochemical; conditions: for half-life: buffer; for Half-life in aqueous solution: Table 5
Procedure: […] The solutions of prodrugs were prepared by adding 10 μL of stock solution (10 mg/mL in DMSO) to the preheated buffer. The solutions were stirred at a constant temperature of 37° C. At appropriate intervals, 75 μL of samples were mixed with 75 μL of MeOH and analyzed for remaining prodrug by HPLC.
The pseudo-first-order rate constants (kobs) and half-lives (t1/2) for the degradation of the prodrugs were determined from the linear slopes of the plots by taking the logarithm of the remaining prodrug over time. Equations: kobs=slope/−2.303 and t1/2=ln2/kobs.

[5] = both sexes, human, microsomes, pH 7.4, Table 5, 37° C., NADPH, read-out: Half-life in human liver microsomes (single determinations) (converted)
[6] = both sexes, human, microsomes, pH 7.4, Table 5, average of determinations, read-out: Half-life in human liver microsomes (avg.) (converted)
[7] = both sexes, human, microsomes, pH 7.4
[8] = both sexes, human, microsomes, pH 7.4, Table 3, 37° C., NADPH, read-out: Half-life in human liver microsomes (single determinations) (converted)
[9] = pH 6.8, Table 3, aqueous buffer pH 6.8, 37° C., read-out: Half-life in aqueous solution (converted)
[10] = aqueous buffer pH 6.8, 37° C., single determinations
[11] = pH 6.8, Table 5, aqueous buffer pH 6.8, 37° C., single determinations, read-out: Half-life in aqueous solution (converted)

CCCCCc1cc(O)c2c(c1)OC(C)(CCC=C(C)C)C=C2 (stereo not shown) [CBC, Cannabichromene, reference compound]
half-life [1, 5]: 1.93 h | half-life [1, 6]: 1.86 h | microsomal CLint [1, 7]: 6.21 µL/min/mg | Flux (buccal) [2]: 27.87 ± 2.46 nmol/cm^2/h

CCCCCc1cc(OC(=O)N2CCN(C)CC2)c2c(c1)OC(C)(CCC=C(C)C)C=C2 (stereo not shown) [CBCp1, 2-methyl-2-(4-methylpent-3-en-1-yl)-7-pentyl-2H-chromen-5-yl4-methylpiperazine-1-carboxylate]
Half-life in human liver microsomes (single determinations) ([1]; 37° C., NADPH): 3.13 h | half-life at 15 µg/mL [1, 5]: 4.18 h | half-life at 15 µg/mL [1, 6]: 3.65 h | Flux compared with parent cannabinoid [2]: No improvement | Species making up the buccal flux / formation of parent cannabinoid [2]: NO significant formation of CBC | Flux (buccal) [2]: 15.88 ± 0.70 (prodrug) nmol/cm^2/h | Half-life in serum ([3]; Table 5): stable for 6 hrs

CCCCCc1cc(OC(=O)N2CCNCC2)c2c(c1)OC(C)(CCC=C(C)C)C=C2 (stereo not shown) [CBCp3, 2-methyl-2-(4-methylpent-3-en-1-yl)-7-pentyl-2H-chromen-5-yl piperazine-1-carboxylate]
half-life at 15 µg/mL [1, 6]: 14.9 h | Flux compared with parent cannabinoid [2]: No improvement | Species making up the buccal flux / formation of parent cannabinoid [2]: NO significant formation of CBC | Flux (buccal) [2]: 5.74 ± 0.51 (prodrug) nmol/cm^2/h | Half-life in serum ([3]; Table 5): stable for 6 hrs

C=C(C)[C@@H]1CCC(C)=C[C@H]1c1c(O)cc(CCCCC)cc1OC(=O)CN1CCN(C)CC1 [CBDp7, (1′R,2′R)-6-hydroxy-5′-methyl-4-pentyl-2′-(prop-1-en-2-yl)-1′,2′,3′,4′-tetrahydro-[1,1′-biphenyl]-2-yl 2-(4-methylpiperazin-1-yl)acetate]
half-life [1, 8]: 0.12 h | Buccal permeation compared with parent cannabinoid (in words) [2]: better than that of CBD | Species making up the buccal flux (parent vs intact prodrug) [2]: 1/3 CBD & 2/3 | half-life ([3]; pH 7.4, Table 3): 2.6 h | half-life [4, 9]: 0.16 h

C=C(C)[C@@H]1CCC(C)=C[C@H]1c1c(OC(=O)N2CCN(C)CC2)cc(CCCCC)cc1OC(=O)N1CCN(C)CC1 [CBDp14, (1′R,2′R)-5′-methyl-4-pentyl-2′-(prop-1-en-2-yl)-1′,2′,3′,4′-tetrahydro-[1,1′-biphenyl]-2,6-diyl bis(4-methylpiperazine-1-carboxylate)]
half-life at 15 µg/mL [1, 8]: 0.86 h | Buccal permeation compared with parent cannabinoid (in words) [2]: better than that of CBD; also recorded: significantly improved permeability compared to CBD | Species making up the buccal flux (parent vs intact prodrug) [2]: only intact prodrug | Half-life in serum ([3]; Table 3): stable | half-life ([4]; Table 3 footnote f, 20% of ethanol in the solution, read-out: Half-life in aqueous solution with ethanol): 50 h | half-life [4, 9]: 2.5 h

C=C(C)[C@@H]1CCC(C)=C[C@H]1c1c(O)cc(CCCCC)cc1OC(=O)N1CCCCC1 [CBDp17, (1′R,2′R)-6-hydroxy-5′-methyl-4-pentyl-2′-(prop-1-en-2-yl)-1′,2′,3′,4′-tetrahydro-[1,1′-biphenyl]-2-yl piperidine-1-carboxylate]
Species making up the buccal flux (parent vs intact prodrug) [2]: only intact prodrug

C=C(C)[C@@H]1CCC(C)=C[C@H]1c1c(OC(=O)N2CCCCC2)cc(CCCCC)cc1OC(=O)N1CCCCC1 [CBDp18, (1′R,2′R)-5′-methyl-4-pentyl-2′-(prop-1-en-2-yl)-1′,2′,3′,4′-tetrahydro-[1,1′-biphenyl]-2,6-diyl bis(piperidine-1-carboxylate)]
Species making up the buccal flux (parent vs intact prodrug) [2]: only intact prodrug

C=C(C)[C@@H]1CCC(C)=C[C@H]1c1c(O)cc(CCCCC)cc1OC(=O)N1CCNCC1 [CBDp21, (1′R,2′R)-6-hydroxy-5′-methyl-4-pentyl-2′-(prop-1-en-2-yl)-1′,2′,3′,4′-tetrahydro-[1,1′-biphenyl]-2-yl piperazine-1-carboxylate]
Buccal permeation compared with parent cannabinoid (in words) [2]: better than that of CBD | Species making up the buccal flux (parent vs intact prodrug) [2]: only intact prodrug

C=C(C)[C@@H]1CCC(C)=C[C@H]1c1c(OC(=O)C2CCNC2)cc(CCCCC)cc1OC(=O)C1CCNC1 (stereo partly drawn) [CBDp24, (1′R,2′R)-5′-methyl-4-pentyl-2′-(prop-1-en-2-yl)-1′,2′,3′,4′-tetrahydro-[1,1′-biphenyl]-2,6-diyl bis(pyrrolidine-3-carboxylate)]
Buccal permeation compared with parent cannabinoid (in words) [2]: better than that of CBD; also recorded: superior when compared to CBD and other prodrugs | Species making up the buccal flux (parent vs intact prodrug) [2]: mostly intact | Stability in standard and aqueous solutions (in words) ([4]; Table 3 footnote e): ^e Could not be determined due to fast degradation in standard and aqueous solutions,

CCCCCc1cc(O)c(C/C=C(\C)CCC=C(C)C)c(O)c1 [CBG, Cannabigerol, reference compound]
microsomal CLint at 15 µg/mL [1, 7]: 7.18 µL/min/mg | half-life at 15 µg/mL ([1]; both sexes, human, microsomes, pH 7.4, Half-life in human liver microsomes (avg.)): 1.61 h | half-life at 15 µg/mL ([1]; both sexes, human, microsomes, pH 7.4, Half-life in human liver microsomes (single determinations)): 1.79 h | Kobs (based on microsomes Half-life) ([1]; human, microsomes): 0.43

CCCCCc1cc(O)c(C/C=C(\C)CCC=C(C)C)c(OC(=O)N2CCN(C)CC2)c1 [CBGp2, (E)-2-(3,7-dimethylocta-2,6-dien-1-yl)-3-hydroxy-5-pentylphenyl 4-methylpiperazine-1-carboxylate]
Half-life in human liver microsomes (single determinations) ([1]; 37° C., NADPH): 1.73 h | half-life at 15 µg/mL [1, 5]: 1.62 h | half-life at 15 µg/mL [1, 6]: 1.68 h | Flux compared with parent cannabinoid [2]: No improvement | Species making up the buccal flux / formation of parent cannabinoid [2]: NO significant formation of CBG | Flux (buccal) [2]: 4.45 ± 0.45 (prodrug) nmol/cm^2/h | Half-life in serum ([3]; Table 5): No degradation | Half-life in aqueous solution [4, 10]: 1.17 h | half-life [4, 11]: 1.14 h

CCCCCc1cc(O)c2c(c1)OC(C)(C)[C@@H]1CCC(C)=C[C@@H]21 [THC, Δ9-Tetrahydrocannabinol, reference compound]
half-life [1, 5]: 0.17 h | half-life [1, 6]: 0.18 h | microsomal CLint [1, 7]: 64.2 µL/min/mg | Flux (buccal) [2]: 19.65 ± 0.36 nmol/cm^2/h

CCCCCc1cc(OC(=O)C2CCNC2)c2c(c1)OC(C)(C)[C@@H]1CCC(C)=C[C@@H]21 (stereo partly drawn) [THCp2, (6aR,10aR)-6,6,9-trimethyl-3-pentyl-6a,7,8,10a-tetrahydro-6H-benzo[c]chromen-1-yl pyrrolidine-3-carboxylate]
Half-life in human liver microsomes (single determinations) ([1]; 37° C., NADPH): 2.79 h | half-life [1, 5]: 2.09 h | half-life [1, 6]: 2.44 h | Half-life in serum ([3]; Table 5): 0.43 h | half-life ([3]; pH 7.4, Table 5): 0.42 h | Half-life in aqueous solution [4, 10]: 0.46 h | half-life [4, 11]: 0.49 h
